Converted amounts (≈) assume the structure as drawn. “And” between values parts separate entries of the source, which are not always exact repeats. Equal values may be shown once. “Also recorded” adds a separate entry of the source. Read-outs that look alike come from different tables or passages of the source.
Columns and labels:
[1] = test system: Streptococcus pneumoniae IMC B-1235 (PRSP); test: Antimicrobial activity test (MIC), clinical isolate IMC B-1235; type: cell-based
Procedure: (§1) Using Streptococcus pneumoniae that include clinical isolates of PRSP, the antimicrobial activity of each of the prepared anti-PRSP agents was measured in accordance with the “determination method of minimum inhibitory concentration of drug against bacteria” of Japanese Society of Chemotherapy (for re-revised version, see Chemotherapy 29; 76, 1981).
(§2) 11 test strains of Streptococcus pneumoniae including IMC B-0919 are all clinical isolates, of which 2 strains, IMC B-0921 and IMC B-1229, are classified into penicillin susceptible Streptococcus pneumoniae (PSSP) and the remaining 9 strains are classified into penicillin-resistant Streptococcus pneumoniae (PRSP) (according to NCCLS standards).

[2] = test system: Streptococcus pneumoniae IMC B-1236 (PRSP); test: Antimicrobial activity test (MIC), clinical isolate IMC B-1236; type: cell-based
Procedure: as §1, §2

[3] = test system: Streptococcus pneumoniae IMC B-1231 (PRSP); test: Antimicrobial activity test (MIC), clinical isolate IMC B-1231; type: cell-based
Procedure: as §1, §2

[4] = test system: Streptococcus pneumoniae IMC B-1234 (PRSP); test: Antimicrobial activity test (MIC), clinical isolate IMC B-1234; type: cell-based
Procedure: as §1, §2

[5] = test system: Streptococcus pneumoniae IMC B-0922 (PRSP); test: Antimicrobial activity test (MIC), clinical isolate IMC B-0922; type: cell-based
Procedure: as §1, §2

[6] = test system: Streptococcus pneumoniae IMC B-0919 (PRSP); test: Antimicrobial activity test (MIC), clinical isolate IMC B-0919; type: cell-based
Procedure: as §1, §2

[7] = test system: general Gram-positive bacteria and Gram-negative bacteria; details: Non-Patent Literatures 1 and 2, Patent Literature 1; cited from earlier work
[8] = test system: Streptococcus pneumoniae IMC B-0920 (PRSP); test: Antimicrobial activity test (MIC), clinical isolate IMC B-0920; type: cell-based
Procedure: as §1, §2

[9] = test system: Streptococcus pneumoniae IMC B-1233 (PRSP); test: Antimicrobial activity test (MIC), clinical isolate IMC B-1233; type: cell-based
Procedure: as §1, §2

[10] = test system: Streptococcus pneumoniae IMC B-1232 (PRSP); test: Antimicrobial activity test (MIC), clinical isolate IMC B-1232; type: cell-based
Procedure: as §1, §2

[11] = test system: Streptococcus pneumoniae IMC B-0921 (PSSP); test: Antimicrobial activity test (MIC), clinical isolate IMC B-0921; type: cell-based
Procedure: as §1, §2

[12] = test system: penicillin-resistant Streptococcus pneumoniae (PRSP); test: Anti-PRSP activity, overall statements on the clinical isolates; type: cell-based; details: statement in words
Procedure: as §1, §2
For the compounds of the present invention, MKT-1011, MKT-2003, MKT-3002 and MKT-3003, the antimicrobial activity was measured in the same way as in Experimental Example 1.

[13] = test system: Streptococcus pneumoniae IMC B-1229 (PSSP); test: Antimicrobial activity test (MIC), clinical isolate IMC B-1229; type: cell-based
Procedure: as §1, §2

[14] = PRSP clinical isolate IMC B-1235
[15] = Streptococcus pneumoniae IMC B-1235, PRSP
[16] = PRSP clinical isolate IMC B-1236
[17] = Streptococcus pneumoniae IMC B-1236, PRSP
[18] = Streptococcus pneumoniae IMC B-1231, PRSP
[19] = Streptococcus pneumoniae IMC B-1234, PRSP
[20] = Streptococcus pneumoniae IMC B-0922, PRSP
[21] = Streptococcus pneumoniae IMC B-0919, PRSP
[22] = PRSP clinical isolate IMC B-0920
[23] = Streptococcus pneumoniae IMC B-0920, PRSP
[24] = PRSP clinical isolate IMC B-1233
[25] = PRSP clinical isolate IMC B-1232
[26] = PRSP clinical isolate IMC B-1231
[27] = PRSP clinical isolate IMC B-1234
[28] = PSSP clinical isolate IMC B-0921
[29] = PRSP clinical isolate IMC B-0922
[30] = PRSP clinical isolate IMC B-0919
[31] = PSSP clinical isolate IMC B-1229
[32] = Streptococcus pneumoniae IMC B-1233, PRSP
[33] = Streptococcus pneumoniae IMC B-1232, PRSP
[34] = Streptococcus pneumoniae IMC B-0921, PSSP
[35] = Streptococcus pneumoniae IMC B-1229, PSSP

SMILES | MIC [1, 14] | MIC [1, 15] | MIC [2, 16] | MIC [2, 17] | MIC [3, 18] | MIC [4, 19] | MIC [5, 20] | MIC [6, 21] | MIC [8, 22] | MIC [8, 23] [µg/mL] | MIC [9, 24] [µg/mL] | MIC [10, 25] [µg/mL] | MIC [3, 26] [µg/mL] | MIC [4, 27] [µg/mL] | MIC [11, 28] [µg/mL] | MIC [5, 29] [µg/mL] | MIC [6, 30] [µg/mL] | anti-PRSP activity [12] | MIC [13, 31] [µg/mL] | further results
CC[C@H]1OC(=O)CC[C@H](C)[C@@H](O[C@@H]2O[C@H](C)C[C@H](N(C)C)[C@H]2O)[C@@H](CC=O)C[C@@H](C)C(=O)/C=C/C(C)=C/[C@@H]1CO [DDMT, 3,4′-dideoxymycaminosyltylonolide, reference compound] | >50 µg/mL and 50 µg/mL and 25 µg/mL | >50 µg/mL and 50 µg/mL | >50 µg/mL and 50 µg/mL and 25 µg/mL | 50 µg/mL and >50 µg/mL | >50 µg/mL and 50 µg/mL | 0.20 µg/mL and 0.39 µg/mL and 0.2 µg/mL | 0.39 µg/mL and 0.20 µg/mL | 0.39 µg/mL and 0.20 µg/mL | 0.2 µg/mL and 0.39 µg/mL and 0.20 µg/mL | 0.39 (≈ 0.689 µM) |  |  |  |  |  |  |  |  |  | antimicrobial effect [7]: excellent antimicrobial effect
CCC1OC(=O)CCC(C)C(OC2OC(C)CC(N(C)C)C2O)C(CC=O)CC(C)C(=O)C=CC(C)=CC1COC(C)=O (stereo not drawn) [MKT-2002] | 25 µg/mL (≈ 41.1 µM) |  | 12.5 µg/mL (≈ 20.6 µM) |  |  |  |  |  | 0.05 µg/mL (≈ 0.0823 µM) |  | 0.05 (≈ 0.0823 µM) | 0.05 (≈ 0.0823 µM) | 0.39 (≈ 0.642 µM) | 0.1 (≈ 0.165 µM) | 0.1 (≈ 0.165 µM) | 0.1 (≈ 0.165 µM) | 0.1 (≈ 0.165 µM) | high anti-PRSP activity | 0.1 (≈ 0.165 µM) | 
CCC1OC(=O)CCC(C)C(OC2OC(C)CC(N(C)C)C2O)C(CC=O)CC(C)C(=O)C=CC(C)=CC1CN(C)Cc1ccccc1 (stereo not drawn) [MKT-3002] | 3.13 µg/mL (≈ 4.68 µM) | 3.13 µg/mL (≈ 4.68 µM) | 3.13 µg/mL (≈ 4.68 µM) | 3.13 µg/mL (≈ 4.68 µM) | 50 µg/mL (≈ 74.7 µM) | <0.1 µg/mL | 0.1 µg/mL (≈ 0.149 µM) | 0.1 µg/mL (≈ 0.149 µM) | 0.2 µg/mL (≈ 0.299 µM) | 0.2 (≈ 0.299 µM) | 0.1 (≈ 0.149 µM) | <0.025 | 50 (≈ 74.7 µM) | <0.1 | 0.1 (≈ 0.149 µM) | 0.1 (≈ 0.149 µM) | 0.1 (≈ 0.149 µM) | high anti-PRSP activity | 0.1 (≈ 0.149 µM) | MIC [9, 32]: 0.1 µg/mL (≈ 0.149 µM); MIC [10, 33]: <0.025 µg/mL; MIC [11, 34]: 0.1 µg/mL (≈ 0.149 µM); MIC [13, 35]: 0.1 µg/mL (≈ 0.149 µM)
CCC1OC(=O)CCC(C)C(OC2OC(C)CC(N(C)C)C2O)C(CC=O)CC(C)C(=O)C=CC(C)=CC1CSc1ccccn1 (stereo not drawn) [MKT-3003] | 1.56 µg/mL (≈ 2.37 µM) | 1.56 µg/mL (≈ 2.37 µM) | 1.56 µg/mL (≈ 2.37 µM) | 1.56 µg/mL (≈ 2.37 µM) | 50 µg/mL (≈ 75.9 µM) | <0.025 µg/mL | <0.025 µg/mL | <0.025 µg/mL | <0.025 µg/mL | <0.025 | <0.025 | <0.025 | 50 (≈ 75.9 µM) | <0.025 | <0.025 | <0.025 | <0.025 | high anti-PRSP activity; also recorded: inhibited the growth of PRSP at remarkably low concentrations | 0.1 (≈ 0.152 µM) | MIC [9, 32]: <0.025 µg/mL; MIC [10, 33]: <0.025 µg/mL; MIC [11, 34]: <0.025 µg/mL; MIC [13, 35]: 0.1 µg/mL (≈ 0.152 µM)
CCC1OC(=O)CCC(C)C(OC2OC(C)CC(N(C)C)C2O)C(CC=O)CC(C)C(=O)C=CC(C)=CC1CNC(=O)c1ccccc1 (stereo not drawn) [MKT-3202] | 0.1 µg/mL (≈ 0.15 µM) |  | 6.25 µg/mL (≈ 9.34 µM) |  |  |  |  |  | 0.2 µg/mL (≈ 0.299 µM) |  | <0.025 | 0.1 (≈ 0.15 µM) | 0.05 (≈ 0.0748 µM) | <0.025 | <0.025 | <0.025 | 0.2 (≈ 0.299 µM) | high anti-PRSP activity | <0.025 | 
C=CCOCC1C=C(C)C=CC(=O)C(C)CC(CC=O)C(OC2OC(C)CC(N(C)C)C2O)C(C)CCC(=O)OC1CC (stereo not drawn) [MKT-3701] | 12.5 µg/mL (≈ 20.6 µM) |  | 12.5 µg/mL (≈ 20.6 µM) |  |  |  |  |  | 0.2 µg/mL (≈ 0.33 µM) |  | 0.05 (≈ 0.0825 µM) | 0.05 (≈ 0.0825 µM) | 3.13 (≈ 5.17 µM) | 0.1 (≈ 0.165 µM) | 0.05 (≈ 0.0825 µM) | 0.1 (≈ 0.165 µM) | 0.1 (≈ 0.165 µM) | high anti-PRSP activity | 0.05 (≈ 0.0825 µM) | 
CC[C@H]1OC(=O)CC[C@H](C)[C@@H](OC2OC(C)CC(N(C)C)C2O)[C@@H](CC=O)C[C@@H](C)C(=O)/C=C/C(C)=C/[C@@H]1COCOCc1ccccc1 (stereo partly drawn) [MKT-3703] |  |  |  |  |  |  |  |  |  |  |  |  |  |  |  |  |  | high anti-PRSP activity |  | MIC ([1]; Streptococcus pneumoniae, PRSP clinical isolate IMC B-1235, read-out: MIC): 6.25 µg/mL (≈ 9.11 µM); MIC ([9]; Streptococcus pneumoniae, PRSP clinical isolate IMC B-1233, read-out: MIC): < 0.025 µg/mL; MIC ([2]; Streptococcus pneumoniae, PRSP clinical isolate IMC B-1236, read-out: MIC): 12.5 µg/mL (≈ 18.2 µM); MIC ([10]; Streptococcus pneumoniae, PRSP clinical isolate IMC B-1232, read-out: MIC): < 0.025 µg/mL; MIC ([3]; Streptococcus pneumoniae, PRSP clinical isolate IMC B-1231, read-out: MIC): 6.25 µg/mL (≈ 9.11 µM); MIC ([4]; Streptococcus pneumoniae, PRSP clinical isolate IMC B-1234, read-out: MIC): < 0.025 µg/mL; MIC ([11]; Streptococcus pneumoniae, PSSP clinical isolate IMC B-0921, read-out: MIC): < 0.025 µg/mL; MIC ([5]; Streptococcus pneumoniae, PRSP clinical isolate IMC B-0922, read-out: MIC): < 0.025 µg/mL; MIC ([6]; Streptococcus pneumoniae, PRSP clinical isolate IMC B-0919, read-out: MIC): < 0.025 µg/mL; MIC ([13]; Streptococcus pneumoniae, PSSP clinical isolate IMC B-1229, read-out: MIC): 0.1 µg/mL (≈ 0.146 µM); MIC ([8]; Streptococcus pneumoniae, PRSP clinical isolate IMC B-0920, read-out: MIC): 0.025 µg/mL (≈ 0.0364 µM)
CCC1OC(=O)CCC(C)C(OC2OC(C)CC(N(C)C)C2O)C(CC=O)CC(C)C(=O)C=CC(C)=CC1CSc1ncccn1 (stereo not drawn) [MKT-3802] | 12.5 µg/mL (≈ 18.9 µM) |  | 12.5 µg/mL (≈ 18.9 µM) |  |  |  |  |  | <0.025 µg/mL |  | <0.025 | <0.025 | 0.39 (≈ 0.591 µM) | 0.025 (≈ 0.0379 µM) | 0.05 (≈ 0.0758 µM) | 0.05 (≈ 0.0758 µM) | <0.025 | high anti-PRSP activity | 0.05 (≈ 0.0758 µM) | 

From patent US8053418B2, “Anti-penicillin resistant pneumococci agent and novel 16-membered macrolide derivative” (Microbial Chemistry Research Foundation, priority 2005, dated 2011)
